Results as given in US10662225B2, “Backbone cyclized inhibitory peptides of myeloid differentiation factor 88 (MyD88)” (Yissum Research Development Company of the Hebrew …, priority 2016, dated 2020).
Numbered stars: 1 amine (or outer) side, 2 acyl side, 3 side chain; on linkers, the order of the positions; unused ones are H or OH. Bridge positions count the residues as written; N and C are the ends. Square brackets hold non-standard residues; d marks the D form. Ends that are not written are not given here. CO = O=C([*:1])[*:2]

Key:
[1] = test system: MyD88-dependent signaling; experiment: TNFα production by THP-1 derived macrophages stimulated with PAM3csk; format: cell-based, human; conditions: THP-1 macrophages, PAM3csk overnight
Description: FIG. 5. Human monocytic THP-1 cells were differentiated to macrophages and were stimulated with PAM3csk overnight in the absence or presence of the cyclic 4-carbon bridge peptide or 6-carbon bridge peptide. TNFα levels in the supernatants were determined by ELISA.
Both cyclic peptides were synthesized with the addition of a tryptophan group to the N-terminus to enable accurate quantification of the molecules.

[2] = test system: MyD88-dependent signaling; experiment: Library screen: TNFα production by U937 macrophage cells stimulated with PAM3Csk; format: cell-based, human; conditions: PAM3Csk overnight, peptide concentration estimated 2-4 μM
Description: FIG. 4. Screening results of the peptide library of 16 compounds. Human macrophage U937 cells were stimulated with PAM3csk overnight in the absence or presence of each of the cyclic peptides. Human TNFα levels in the supernatants were determined by ELISA. […].
The backbone cyclic library of 16 compounds synthesized in Example 3 was screened for inhibition of MyD88-dependent signaling through innate immune receptors employing the human macrophage cell line U937. […] The concentration of the cyclic peptides in the library was estimated to be 2-4 μM.

[3] = Metabolic stability in plasma (quantitative HPLC); format: in vitro ADME, human; conditions: plasma; 4×4MyDI: first two hours
Description: FIGS. 17A and 17B. 4×4MyDI is metabolically stable in comparison to the linear MyDI peptide. 4×4MyDI vs. linear MyDI heptapeptide were incubated independently in either human plasma […] or human plasma supplemented with Brush Border Membrane Vesicles (BBMV, 18B). At various time points the solution was sampled and the amount of remaining compound was determined by quantitative HPLC.
Peptide backbone cyclization confers metabolic stability on peptides that are inherently susceptible to degradation by proteases. […] The stability of the compounds was then tested in plasma enriched with Brush Border Membrane Vesicles (BBMV). This system models the degradative conditions of the intestine.

MyD88 = biological target: T1, MyD88 (Mus musculus, UniProt P22366); experiment: IL-18-induced IFN-γ secretion by MOG35-55 specific T cells (ELISA); format: cell-based
T1 construct: endogenous in cells; host or cells: MOG35-55 specific T cells
Description: FIG. 1. MyD88 inhibitor linear peptide down-regulates IL-18-induced T-cell interferon gamma (IFN-γ) production in vitro. A: MOG35-55 specific T cells were incubated with MIP (SEQ ID NO: 1), or the scrambled version of MIP (MIPscr, PTDLVRG, SEQ ID NO: 5), or without peptide (control) for 2 h. T-cells were then plated with (right side of graph) or without (left side of graph) 30 ng/ml IL-18 for 22 h and IFN-γ production was measured by ELISA. Asterisks denote P<0.0001 compared to no inhibitor peptide or MIPscr. B: MOG35-55 specific T cells were incubated with MIP (SEQ ID NO: 1), or the scrambled version of MIP (MIPscr, SEQ ID NO: 5), or without peptide (control) for 2 h. T-cells were then plated with (right side of graph) or without (left side of graph) 30 ng/ml IL-18 for 22 h in the presence of irradiated splenocytes and MOG35-55 peptide ([…], SEQ ID NO: 4) (5 μg/ml). IFN-γ production was measured by ELISA. Asterisks denote P<0.0001 compared to no inhibitor peptide.
To investigate the ability of the MyD88 inhibitor linear peptide (termed either MIP or MyDI) to inhibit MyD88 activity in T-cells in vitro, the secretion of IFN-γ by MOG-specific T cells in response to IL-18 stimulation was tested. The signaling of IL-18 trough the IL-18 receptor is MyD88 dependent. […] Cells were then stimulated with IL-18, and IFN-γ levels in the supernatants were analyzed after 24 h. […]

[4] = test system: NFκB p65 nuclear translocation; experiment: NFκB p65 nuclear translocation in HeLa cells stimulated with TNFα or IL-1β; format: cell-based; conditions: HeLa cells
Description: FIG. 6. HeLa assay showing specificity of MyD88 inhibition. HeLa cells were stimulated with recombinant TNFα or IL-1β and NFkB localization was determined with anti-p65 conjugated to rhodamine. The percent of cells with nuclear localization was determined and is shown in the bar graphs on the right. 6A: Top row, HeLa cells transduced with control shRNA. Second row, shRNA knock-down of MyD88. 6B: Top row, HeLa cells treated with MyD88 inhibitor linear peptide. Bottom row, HeLa cells treated with scrambled control version of the MyD88 inhibitor linear peptide (SEQ ID NO: 5).
FIG. 7. HeLa assay showing specificity of MyD88 inhibition by 4×4MyDI. HeLa cells were stimulated with recombinant TNFα or IL-1b and NFkB localization was determined with anti-p65 conjugated to rhodamine. The percent of cells with nuclear localization was determined, and is shown in the bar graphs on the right. Top row, HeLa cells with no pre-treatment. Second row, HeLa cells pre-treated for 30 min with the backbone cyclic 4×4MyDI compound.
Lead compounds were further tested in vitro to confirm the specificity of the inhibition. A fluorescence-based in vitro activity assay that determines the degree of activation of the transcription factor NFκB was established. In this assay, cells are treated with either TNFα or IL-1b, both inflammatory cytokines that activate NFκB. Upon activation, the p65 unit of the NFκB transcription factor re-locates from the cytoplasm to the nucleus. Using fluorescently-tagged antibodies to p65, the cytoplasmic vs. nuclear localization of the factor is determined. Importantly, since the signaling of IL-1b, but not TNFα, is dependent on MyD88, this assay can establish the specificity of the inhibition achieved using the lead compounds.
Cells were activated with either IL-1β (the signaling of the IL-1 receptor is dependent on MyD88), or with TNFα (signaling of its receptor is independent of MyD88). The activation was measured by the translocation of NFκB from the cytoplasm to the nucleus. As a positive control, a stable MyD88 knock-down cell line was established using lentiviral encoded shRNA.
Using the same system, when cells were treated with the backbone cyclic peptide 4×4MyDI, activation by IL-1β was blocked, however when treated with TNFα the activation was not inhibited.

MyD88 TIR domain = biological target: T2, MyD88 TIR domain (Homo sapiens, UniProt Q99836); experiment: Competition assay: binding of biotinylated linear BB loop peptide to MyD88 TIR domain; conditions: different concentrations
T2 construct: made in house
Description: FIG. 9. 4×4MyDI binds to the BB loop region of the MyD88 TIR domain. A 96 well plate was coated with recombinant MyD88 (8 μg/ml) in coating buffer vs. buffer alone, and wells were blocked with 1% BSA. Biotinylated linear peptide was added to all wells (125 μg/ml) followed by streptavidin-HRP and substrate. The signal of linear peptide bound to its target was inhibited by incubation with the 4×4MyDI (*P<0.05) but not by incubation with the scrambled version of the linear peptide (SEQ ID NO: 5).
The ability of the 4×4MyDI compound to bind to the target region (the BB loop) of the MyD88 TIR domain, was evaluated using a newly-designed assay. For this goal a competition assay was established that tests the ability of the 4×4MyDI compound to prevent the binding of the biotinylated linear BB loop peptide to the MyD88 TIR domain. The MyD88 TIR domain was produced as a recombinant protein fused to the SUMO3 protein (Accession # NP_008867), purified, and attached to a 96 well plate. Binding of biotinylated RDVLPGT (SEQ. ID NO: 1) peptide was detected using streptavidin conjugated to horse radish peroxidase (HRP) followed by the addition of HRP substrate.

T1 sequence (P22366 whole entry): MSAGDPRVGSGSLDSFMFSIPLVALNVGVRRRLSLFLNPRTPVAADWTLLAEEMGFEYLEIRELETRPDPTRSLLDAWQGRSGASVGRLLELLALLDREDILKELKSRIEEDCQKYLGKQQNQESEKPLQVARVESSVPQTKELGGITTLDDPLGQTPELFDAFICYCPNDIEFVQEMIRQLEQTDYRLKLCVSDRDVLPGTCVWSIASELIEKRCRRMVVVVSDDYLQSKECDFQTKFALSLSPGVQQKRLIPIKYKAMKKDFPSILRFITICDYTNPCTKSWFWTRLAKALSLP
T2 sequence (Q99836 151-296): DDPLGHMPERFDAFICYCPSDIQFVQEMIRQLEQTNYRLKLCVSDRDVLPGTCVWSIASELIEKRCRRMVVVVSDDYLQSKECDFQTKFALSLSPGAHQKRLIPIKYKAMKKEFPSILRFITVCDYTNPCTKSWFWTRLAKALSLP

6×6 bridge peptide: backbone cyclic peptide of Formula IV with m=6, n=6 (W[Gly(Nα-(CH2)6-NH2)]RDVL[Gly(Nα-(CH2)6-NH2)]GT; bridge 2-7 via CO)
inhibition of TNFα production [1]: inhibited the human macrophage production of TNFα
MyD88 inhibitory activity (reduction in TNFα production) [2]: greatest MyD88 inhibitory activity

RDVLPGT [MIP, Arg-Asp-Val-Leu-Pro-Gly-Thr, reference compound]
stability in plasma [3]: disappears rapidly
reduction of the level of IFN-γ (MyD88; T cells with APC presenting MOG35-55 peptide plus IL-18): 30-35%

PTDLVRG [MIPscr, reference compound]
Percent p65 nuclear translocation, TNFα ([4]; TNFα (MyD88 independent)): 90%
Percent p65 nuclear translocation, No stimulation ([4]; no stimulation): 0%
IL-18-stimulated IFNγ level (MyD88; 20 mM peptide (so in the source), IL-18 stimulation, supernatants after 24 h): had no effect
inhibition of binding of the biotinylated peptide to the MyD88 TIR domain (MyD88 TIR domain): did not inhibit
